Source: publication PMC10726367 (Journal of Medicinal Chemistry, 2023)

Assays:
SERCA2a = target: T1, SERCA2a (Mus musculus, UniProt O55143); experiment: Caffeine-induced Ca2+ release assay in HL-1 cells (FLIPR Calcium 6); assay type: cell-based; settings: HL-1 cells, 2 h incubation at various concentrations, 10 mM caffeine
T1 construct: host or cells: HL-1 cells
From the text: It is known that caffeine stimulates the release of calcium from intracellular stores in cells by acting as a RyR activator.[39],[40] The binding site for caffeine is located on the cytosolic side of the protein between the C-terminal and the S2S3 domain.[41] When caffeine binds to RyR2, it interacts with specific amino acids on the protein, which causes conformational changes in the protein’s structure.[42] This opens the RyR2 channel pore, enabling the mass release of calcium ions from the SR. We investigated the effect of caffeine-induced Ca^2+ release in HL-1 cells treated with cytosolic Ca^2+ indicator FLIPR Calcium 6 (Molecular Devices). The HL-1 cell line is an immortalized mouse cardiomyocyte cell line commonly used to study the effects of various substances on cell function.[43] If the tested compound modulates SERCA2a activation, it will cause an increase in Ca^2+ concentration in the SR and the effect of a fixed dose of caffeine on SR Ca^2+ release will be potentiated by increasing doses of a proposed SERCA activator.[26] As a positive control, we used CDN1163, a small-molecule SERCA activator, which is at present in a clinical trial due to its potential therapeutic use for certain cardiac conditions.[27]
HL-1 cells (50,000 per well) were cultivated for 24 h in black-walled, clear-bottom 96-well microplates (Corning, Amsterdam, The Netherlands) covered with fibronectin/gelatin (Merck KGaA, Darmstadt, Germany) in a humidified incubator at 37 °C and 5% CO2.
Changes in Ca^2+ concentration were measured on a multiwell plate reader TECAN Spark 20 M using a FLIPR 6 Calcium Assay Kit from Molecular Devices (Molecular Devices LLC, München, Germany) at 37 °C. The 1000 × stock solutions of the test compounds were prepared in DMSO. A 100 μL solution of test compound in Tyrode’s solution containing FLIPR Calcium 6 dye was incubated for 2 h at 37 °C and 5% CO2 in a humidified incubator. The time courses were recorded in each well. Fluorescence was evoked at 485 nm excitation wavelength and read out in a bottom-read mode at 525 nm. Data were recorded every 2 s, exposure −20 flashes, excitation bandwidth −10 nm, emission bandwidth −15 nm. To initiate Ca^2+ influx, 25 μL of 50 mM caffeine solution in Tyrode’s solution containing 2 mM CaCl2 was injected in each well (speed 100 μL/s) at the 10 s time point, resulting in 10 mM final concentration in the well. The differences between the caffeine-induced peak minus basal fluorescence, ΔFCaff, were taken into account for the analysis. The Tyrode’s solution +0.1 v/v% DMSO was used as a control. The dose–response curves were calculated using the software package GraphPad Prism version 8.3.1. All data are presented as mean ± SD from eight independent experiments. Y = bottom + (top – bottom)/(1 + 10^((LogEC50 – X) × HillSlope)) was used, where HillSlope describes the steepness of the curve and top and bottom are plateaus in the units of the Y axis.

[1] = Membrane permeability, PermeaPad Plate (cell-free transport model); assay type: in vitro ADME; settings: for Pe: 24 h, room temperature; for Pe class (low/medium/high; poor): class word printed beside Pe, no key given
Method: Membrane permeability was assessed using PermeaPad Plate according to the manufacturing procedure (innoME GmbH, Espelkamp, Germany). Briefly, 200 μL of water was added into the acceptor plate. 200 μL of 100–500 μM test compound in water was added directly to the well membranes of the donor plate. The donor plate contains a biomimetic membrane for simulating passive mass transfer through different barriers in the body. Then, the donor plate was placed into the acceptor plate wells and incubated at room temperature for 24 h in the dark. To determine the peak absorbance of test compounds, absorbance spectra of acceptor solutions and initial solutions for each test compound were read out. The permeability rate (Pe) was calculated using the formula:
[drawing 1] , where ODA is the absorbance of acceptor solution and ODE is the absorbance of the standard solution; if the compound is able to permeabilize the membrane and fully reach equilibrium, 250 μM will be the final concentration of solution in the donor and acceptor wells. The coefficient C was calculated using the formula:
[drawing 2] , where VA is the acceptor volume (cm^3), VD is the donor volume (cm^3), the membrane area is 0.24 cm^2, and the time is 86,400 s.

RyR2 = target: T2, RyR2 (Mus musculus, UniProt E9Q401); experiment: Time-lapse [Ca2+]ER assay (RyR2 R-CEPIA1er assay) in HEK-293 cells with inducible WT RyR2; assay type: cell-based; settings: for effect on [Ca2+]ER / R-CEPIA1er fluorescence (F/F0): 25 μM, vs 0.1 v/v% DMSO
T2 construct: expressed in transfected cells; host or cells: HEK-293 cells stably expressing R-CEPIA1er with doxycycline-inducible WT RyR2
T2 sequence (E9Q401 whole entry): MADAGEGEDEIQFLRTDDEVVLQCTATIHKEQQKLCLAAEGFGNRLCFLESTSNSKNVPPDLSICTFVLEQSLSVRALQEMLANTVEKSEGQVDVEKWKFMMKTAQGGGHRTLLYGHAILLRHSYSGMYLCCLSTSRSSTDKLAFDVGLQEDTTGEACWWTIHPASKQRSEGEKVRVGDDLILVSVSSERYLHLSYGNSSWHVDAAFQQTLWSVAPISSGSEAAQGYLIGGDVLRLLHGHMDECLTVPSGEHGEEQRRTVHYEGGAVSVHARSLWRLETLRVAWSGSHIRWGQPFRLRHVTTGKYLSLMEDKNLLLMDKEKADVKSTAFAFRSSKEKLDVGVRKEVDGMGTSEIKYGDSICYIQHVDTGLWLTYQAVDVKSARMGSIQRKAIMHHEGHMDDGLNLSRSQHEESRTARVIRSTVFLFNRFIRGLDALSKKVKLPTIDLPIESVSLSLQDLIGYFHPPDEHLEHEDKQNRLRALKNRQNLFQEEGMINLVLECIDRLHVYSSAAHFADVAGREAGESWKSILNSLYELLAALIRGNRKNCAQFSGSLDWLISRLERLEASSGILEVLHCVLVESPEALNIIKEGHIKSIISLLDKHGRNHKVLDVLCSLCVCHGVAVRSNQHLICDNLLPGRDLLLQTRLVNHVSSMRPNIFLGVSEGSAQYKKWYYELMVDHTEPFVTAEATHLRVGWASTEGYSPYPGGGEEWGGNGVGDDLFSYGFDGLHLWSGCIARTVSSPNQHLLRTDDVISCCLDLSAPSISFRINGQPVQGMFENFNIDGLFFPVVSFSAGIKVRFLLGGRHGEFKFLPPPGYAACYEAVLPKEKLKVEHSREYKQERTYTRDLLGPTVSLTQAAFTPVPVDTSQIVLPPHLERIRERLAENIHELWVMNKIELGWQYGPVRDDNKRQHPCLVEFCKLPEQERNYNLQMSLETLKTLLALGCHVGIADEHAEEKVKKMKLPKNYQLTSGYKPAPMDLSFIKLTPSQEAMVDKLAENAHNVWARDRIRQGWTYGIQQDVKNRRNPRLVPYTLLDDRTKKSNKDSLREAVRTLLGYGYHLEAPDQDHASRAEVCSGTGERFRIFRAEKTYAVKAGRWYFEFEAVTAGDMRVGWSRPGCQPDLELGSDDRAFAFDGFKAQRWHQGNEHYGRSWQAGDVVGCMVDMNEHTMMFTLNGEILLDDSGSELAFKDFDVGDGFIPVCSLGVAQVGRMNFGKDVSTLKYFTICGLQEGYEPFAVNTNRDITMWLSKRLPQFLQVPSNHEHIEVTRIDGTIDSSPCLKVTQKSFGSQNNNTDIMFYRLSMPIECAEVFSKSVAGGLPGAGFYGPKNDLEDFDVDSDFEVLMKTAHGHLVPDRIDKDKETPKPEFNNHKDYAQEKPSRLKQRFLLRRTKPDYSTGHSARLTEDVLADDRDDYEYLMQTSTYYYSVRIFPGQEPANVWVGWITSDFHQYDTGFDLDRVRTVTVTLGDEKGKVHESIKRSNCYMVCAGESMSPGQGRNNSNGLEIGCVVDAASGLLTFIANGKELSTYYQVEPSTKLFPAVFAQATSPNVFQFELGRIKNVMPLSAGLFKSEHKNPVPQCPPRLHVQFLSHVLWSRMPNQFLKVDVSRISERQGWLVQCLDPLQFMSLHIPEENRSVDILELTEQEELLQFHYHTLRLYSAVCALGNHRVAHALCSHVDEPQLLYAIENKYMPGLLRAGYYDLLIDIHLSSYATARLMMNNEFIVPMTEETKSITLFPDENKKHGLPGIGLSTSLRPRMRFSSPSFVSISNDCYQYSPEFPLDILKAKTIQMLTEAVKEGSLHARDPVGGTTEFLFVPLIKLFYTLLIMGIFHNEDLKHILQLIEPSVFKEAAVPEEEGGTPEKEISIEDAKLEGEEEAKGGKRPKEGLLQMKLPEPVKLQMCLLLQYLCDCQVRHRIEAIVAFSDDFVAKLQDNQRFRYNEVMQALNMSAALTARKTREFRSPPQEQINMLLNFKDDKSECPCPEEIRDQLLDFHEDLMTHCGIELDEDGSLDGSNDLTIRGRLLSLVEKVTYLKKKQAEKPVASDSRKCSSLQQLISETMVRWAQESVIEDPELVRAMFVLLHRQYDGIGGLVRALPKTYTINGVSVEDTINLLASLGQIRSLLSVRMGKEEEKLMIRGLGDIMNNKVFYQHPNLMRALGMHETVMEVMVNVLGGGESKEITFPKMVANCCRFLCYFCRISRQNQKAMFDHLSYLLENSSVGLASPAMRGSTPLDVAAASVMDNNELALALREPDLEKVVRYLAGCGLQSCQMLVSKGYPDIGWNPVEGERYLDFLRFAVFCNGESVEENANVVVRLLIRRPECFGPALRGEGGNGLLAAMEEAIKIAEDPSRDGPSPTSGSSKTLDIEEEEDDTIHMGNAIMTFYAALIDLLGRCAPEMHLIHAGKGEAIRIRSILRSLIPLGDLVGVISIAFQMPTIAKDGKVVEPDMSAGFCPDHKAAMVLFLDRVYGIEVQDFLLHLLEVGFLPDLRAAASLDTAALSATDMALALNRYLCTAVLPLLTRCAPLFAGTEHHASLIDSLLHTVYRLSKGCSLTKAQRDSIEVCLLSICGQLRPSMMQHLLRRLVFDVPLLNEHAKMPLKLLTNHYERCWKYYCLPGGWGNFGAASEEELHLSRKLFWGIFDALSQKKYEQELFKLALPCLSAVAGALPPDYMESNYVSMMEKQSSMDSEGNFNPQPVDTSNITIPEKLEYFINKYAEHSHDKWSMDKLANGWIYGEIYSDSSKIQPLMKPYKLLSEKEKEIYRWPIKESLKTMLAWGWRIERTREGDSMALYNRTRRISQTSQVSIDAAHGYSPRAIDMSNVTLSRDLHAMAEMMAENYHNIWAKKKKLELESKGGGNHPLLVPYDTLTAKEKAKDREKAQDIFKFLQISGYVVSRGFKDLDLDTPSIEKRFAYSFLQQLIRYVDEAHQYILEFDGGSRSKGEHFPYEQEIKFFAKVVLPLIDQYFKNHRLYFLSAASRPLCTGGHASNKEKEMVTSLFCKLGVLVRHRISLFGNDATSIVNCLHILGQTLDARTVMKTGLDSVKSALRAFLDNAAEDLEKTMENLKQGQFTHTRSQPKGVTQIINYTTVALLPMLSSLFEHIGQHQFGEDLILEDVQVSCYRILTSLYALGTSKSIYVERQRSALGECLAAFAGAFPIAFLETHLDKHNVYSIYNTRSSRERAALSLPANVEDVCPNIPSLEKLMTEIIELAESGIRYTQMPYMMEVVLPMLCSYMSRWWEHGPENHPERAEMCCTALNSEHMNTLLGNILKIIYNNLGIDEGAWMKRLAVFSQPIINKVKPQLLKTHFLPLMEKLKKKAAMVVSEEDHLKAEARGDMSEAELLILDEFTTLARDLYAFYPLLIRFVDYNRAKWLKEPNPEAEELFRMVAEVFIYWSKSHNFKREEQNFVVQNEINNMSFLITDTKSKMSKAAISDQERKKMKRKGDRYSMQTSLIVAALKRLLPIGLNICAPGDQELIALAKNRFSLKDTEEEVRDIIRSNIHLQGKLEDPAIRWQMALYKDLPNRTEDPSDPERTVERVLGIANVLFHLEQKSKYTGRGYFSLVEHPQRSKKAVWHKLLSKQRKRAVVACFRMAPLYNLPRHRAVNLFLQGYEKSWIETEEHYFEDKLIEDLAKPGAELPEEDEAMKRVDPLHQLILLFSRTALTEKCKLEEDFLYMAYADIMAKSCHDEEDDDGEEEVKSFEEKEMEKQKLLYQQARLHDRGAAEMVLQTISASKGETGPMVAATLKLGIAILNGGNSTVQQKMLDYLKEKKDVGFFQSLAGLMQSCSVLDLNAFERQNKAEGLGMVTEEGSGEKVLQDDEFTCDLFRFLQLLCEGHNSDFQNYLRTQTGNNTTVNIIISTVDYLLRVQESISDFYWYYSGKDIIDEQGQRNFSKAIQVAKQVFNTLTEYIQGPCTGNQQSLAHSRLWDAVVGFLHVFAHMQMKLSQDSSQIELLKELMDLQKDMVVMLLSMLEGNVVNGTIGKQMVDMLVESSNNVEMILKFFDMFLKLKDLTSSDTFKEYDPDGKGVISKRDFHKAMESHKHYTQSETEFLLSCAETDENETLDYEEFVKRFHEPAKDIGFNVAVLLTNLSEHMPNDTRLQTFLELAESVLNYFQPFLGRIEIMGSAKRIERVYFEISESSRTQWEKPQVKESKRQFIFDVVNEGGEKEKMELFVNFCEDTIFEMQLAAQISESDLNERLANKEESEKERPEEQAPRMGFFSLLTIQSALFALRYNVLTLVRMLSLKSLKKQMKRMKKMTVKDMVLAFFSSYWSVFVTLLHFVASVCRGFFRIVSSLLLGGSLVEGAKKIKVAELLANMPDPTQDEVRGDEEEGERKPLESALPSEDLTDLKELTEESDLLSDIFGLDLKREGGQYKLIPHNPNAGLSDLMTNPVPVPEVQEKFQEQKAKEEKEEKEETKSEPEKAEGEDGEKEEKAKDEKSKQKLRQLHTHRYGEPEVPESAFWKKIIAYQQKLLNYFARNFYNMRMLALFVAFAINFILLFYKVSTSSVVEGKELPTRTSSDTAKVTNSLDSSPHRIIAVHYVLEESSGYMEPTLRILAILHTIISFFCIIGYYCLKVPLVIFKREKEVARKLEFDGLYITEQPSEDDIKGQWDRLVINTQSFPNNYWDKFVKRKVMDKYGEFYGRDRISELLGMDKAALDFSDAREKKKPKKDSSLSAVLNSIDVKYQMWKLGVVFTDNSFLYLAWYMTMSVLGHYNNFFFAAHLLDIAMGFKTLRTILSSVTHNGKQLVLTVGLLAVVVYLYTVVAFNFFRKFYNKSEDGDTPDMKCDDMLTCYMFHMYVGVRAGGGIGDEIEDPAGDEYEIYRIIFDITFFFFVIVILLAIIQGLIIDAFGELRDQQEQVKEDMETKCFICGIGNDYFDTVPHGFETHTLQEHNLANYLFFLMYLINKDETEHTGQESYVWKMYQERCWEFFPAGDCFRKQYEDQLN
From the text: To assess the functional potency of novel agents for modulating RyR2 channel activity, we measured changes in Ca^2+ levels in ER of HEK-293 cells with inducible expression of wild-type RyR2 (WT RyR2).[33],[34] Because the expression of WT RyR2 introduces an additional spontaneous Ca^2+ leak from the ER, these cells are suitable for our purpose of testing potential RyR2 stabilizers.[35] The cells additionally stably express the Ca^2+ fluorescence indicator R-CEPIA1er, which is a genetically encoded sensor protein of Ca^2+ in the ER (the cell line was a gift from T. Murayama, Department of Pharmacology, Juntendo University School of Medicine, Tokyo, Japan).[36]
The addition of these compounds, which are known to inhibit excessive cardiac RyR2 activity, should reduce Ca^2+ leak from the ER, thus increasing the R-CEPIA1er fluorescence.
The fluorescence plate reader [Ca^2+]ER assay was performed according to the slightly modified protocol of Murayama and Kurebayashi.[36] […] After the cells were inducted with doxycycline for 24 h, changes in ER calcium concentrations [Ca^2+]ER were measured on a multiwell plate reader TECAN Spark 20 M at 37 °C. The 1000 × stock solutions of the test compounds were prepared in DMSO. Briefly, the culture medium was removed and 100 μL of Tyrode’s solution containing 2 mM CaCl2 was added to the cells. The time courses were recorded in each well. Fluorescence was evoked by a 560 nm excitation wavelength and collected in a bottom-read mode at 610 nm. Data was recorded every 10 s, exposure −20 flashes, excitation bandwidth −20 nm, emission bandwidth −20 nm. 100 μL of 0–100 μM solution of test compound in Tyrode’s solution containing 2 mM CaCl2 was injected in each well (speed 100 μL/s) at the 90 s time point. […] The 0.1 v/v% DMSO and 2 mM CaCl2 Tyrode’s solution was used as a control.
The dose–response curves were calculated using the software package GraphPad Prism version 8.3.1. (GraphPad Software, Inc.). All data are presented as mean ± SD in three independent experiments. Y = bottom + (top – bottom)/(1 + 10^((LogEC50 – X) × HillSlope)) was used, where HillSlope describes the steepness of the curve, and top and bottom are plateaus in the units of the Y-axis.

[2] = CytoTox-Glo Cytotoxicity Assay; assay type: cell-based; settings: mouse; HL-1 cells, 100 μM solutions, 24 h incubation
Method: Cell viability was assessed using the CytoTox-Glo Cytotoxicity Assay according to the manufacturing procedure (Promega GmbH). Briefly, HL-1 cells were cultivated for 24 h in black-walled, clear-bottom 96-well microplates (Corning) covered with fibronectin in DMEM, containing different concentrations of the tested compound (10,000 cells/well). Luminescence of a luminogenic peptide substrate was measured before and after the addition of the lysis reagent (digitonin). The viable cell contribution was determined by a subtractive method. 0.1% DMSO-treated cells were taken as a control.

Cc1ccc2cccc(NC(=O)c3ccc(OC(C)C)cc3)c2n1 [CDN1163, reference compound]
effect on caffeine-induced Ca2+ release (in words) (SERCA2a): clear dependence of the magnitude of the caffeine effect from the concentration of CDN1163

COc1ccc2c(c1)CN(C(=O)C(=O)O)CCS2 [S36, reference compound]
Pe [1]: 1.0 10^–6 cm/s | Pe class (low/medium/high; poor) [1]: poor permeability and low | effect on caffeine-induced Ca2+ release (in words) (SERCA2a): no concentration-dependent effect | RyR2 effect class (RyR2; 25 μM (S107 1 mM per Figure 2), HEK-293 RyR2 R-CEPIA1er cells): +++ | effect on [Ca2+]ER / R-CEPIA1er fluorescence (F/F0) (RyR2): increase in R-CEPIA1er fluorescence | viability at 24 h, 100 μM [2]: 94%

COc1ccc2c(c1)CN(C)CCS2 [S107, 4-methyl-7-methoxy-2,3,4,5-tetrahydro-1,4-benzothiazepine, reference compound]
Pe [1]: 1.2 10^–6 cm/s | Pe class (low/medium/high; poor) [1]: medium | effect on caffeine-induced Ca2+ release (in words) (SERCA2a): did not show any effects on SR Ca^2+ content | viability at 24 h, 100 μM [2]: 98%

O=C1CN(/N=C/c2ccc(-c3ccc([N+](=O)[O-])cc3)o2)C(=O)N1 [dantrolene, reference compound]
effect on [Ca2+]ER / R-CEPIA1er fluorescence (F/F0) (RyR2): increase in R-CEPIA1er fluorescence
